Measurements: the supplement of paper PMC10307832

What was measured:
Assay in all cases: relative viability (nuclei count vs DMSO), 5 days (fraction); higher = more cells survive
[1] = system: CAL-12T
In short: (§1)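 Lung cancer cell lines in 1536-well plates were dosed by pin tool the day after seeding, either with one drug alone or with a fixed anchor-drug dose plus five library-drug doses (not always all listed) in √10 steps. After 5 days, cells were fixed and their nuclei stained in one step (final 0.05% Triton X-100, 1% formaldehyde, 1 ug/ml Hoechst), then counted on 4× images. Relative viability is the nuclei count in treated wells divided by that in vehicle wells. Values are medians of duplicate plates.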

[2] = system: SK-LU-1
In short: as §1

[3] = system: NCI-H1437
In short: as §1

[4] = system: NCI-H2342
In short: as §1

[5] = system: NCI-H441
In short: as §1

[6] = system: COR-L23
In short: as §1

[7] = system: NCI-H460
In short: as §1

[8] = system: LU99A
In short: as §1

[9] = system: NCI-H1793
In short: as §1

[10] = system: NCI-H1650
In short: as §1

[11] = system: NCI-H1355
In short: as §1

[12] = system: NCI-H838
In short: as §1

[13] = system: NCI-H2085
In short: as §1

[14] = system: NCI-H1975
In short: as §1

[15] = system: NCI-H1563
In short: as §1

[16] = system: NCI-H1734
In short: as §1

[17] = system: NCI-H1651
In short: as §1

[18] = system: NCI-H358
In short: as §1

[19] = system: BEN
In short: as §1

[20] = system: HCC-366
In short: as §1

[21] = system: LOU-NH91
In short: as §1

[22] = system: NCI-H2023
In short: as §1

In the case of `CCN(CC)CCCCNc1ncc2cc(-c3cc(OC)cc(OC)c3)c(NC(=O)NC(C)(C)C)nc2n1` + N=C(N)NC(=N)NCCc1ccccc1 [Phenformin] (partner 250 µM), the relative viability ([1]; first compound 0.01 µM) is reported as 0.595, the relative viability ([1]; first compound 0.03162 µM) is reported as 0.582 and the relative viability ([1]; first compound 0.1 µM) is reported as 0.673. It also gave a relative viability ([1]; first compound 0.3162 µM) of 0.726, a relative viability ([1]; first compound 1 µM) of 0.573 and a relative viability ([2]; first compound 0.01 µM) of 0.661. It also gave a relative viability ([2]; first compound 0.03162 µM) of 0.551, a relative viability ([2]; first compound 0.1 µM) of 0.681 and a relative viability ([2]; first compound 0.3162 µM) of 0.586. For the same compound, the relative viability ([2]; first compound 1 µM) was 0.285, the relative viability ([3]; first compound 0.01 µM) was 0.29 and the relative viability ([3]; first compound 0.03162 µM) was 0.298. The relative viability ([3]; first compound 0.1 µM) was 0.28, the relative viability ([3]; first compound 0.3162 µM) was 0.362 and the relative viability ([3]; first compound 1 µM) was 0.257. It also gave a relative viability ([4]; first compound 0.01 µM) of 0.578, a relative viability ([4]; first compound 0.03162 µM) of 0.582 and a relative viability ([4]; first compound 0.1 µM) of 0.56. For the same compound, the relative viability ([4]; first compound 0.3162 µM) was 0.664, the relative viability ([4]; first compound 1 µM) was 0.648 and the relative viability ([5]; first compound 0.01 µM) was 0.826. The relative viability ([5]; first compound 0.03162 µM) was 0.87, the relative viability ([5]; first compound 0.1 µM) was 1.02 and the relative viability ([5]; first compound 0.3162 µM) was 0.835. It also gave a relative viability ([5]; first compound 1 µM) of 0.933, a relative viability ([6]; first compound 0.01 µM) of 0.433 and a relative viability ([6]; first compound 0.03162 µM) of 0.444. The relative viability ([6]; first compound 0.1 µM) was 0.511, the relative viability ([6]; first compound 0.3162 µM) was 0.517 and the relative viability ([6]; first compound 1 µM) was 0.362. For the same compound, the relative viability ([7]; first compound 0.01 µM) was 0.536, the relative viability ([7]; first compound 0.03162 µM) was 0.567 and the relative viability ([7]; first compound 0.1 µM) was 0.53. It also gave a relative viability ([7]; first compound 0.3162 µM) of 0.68, a relative viability ([7]; first compound 1 µM) of 0.329 and a relative viability ([8]; first compound 0.01 µM) of 0.764. For the same compound, the relative viability ([8]; first compound 0.03162 µM) was 0.841, the relative viability ([8]; first compound 0.1 µM) was 1.04 and the relative viability ([8]; first compound 0.3162 µM) was 0.772. The relative viability ([8]; first compound 1 µM) was 0.756, the relative viability ([9]; first compound 0.01 µM) was 0.416 and the relative viability ([9]; first compound 0.03162 µM) was 0.427. The relative viability ([9]; first compound 0.1 µM) was 0.353, the relative viability ([9]; first compound 0.3162 µM) was 0.341 and the relative viability ([9]; first compound 1 µM) was 0.335. For the same compound, the relative viability ([10]; first compound 0.01 µM) was 0.456, the relative viability ([10]; first compound 0.03162 µM) was 0.416 and the relative viability ([10]; first compound 0.1 µM) was 0.503. For the same compound, the relative viability ([10]; first compound 0.3162 µM) was 0.319, the relative viability ([10]; first compound 1 µM) was 0.232 and the relative viability ([11]; first compound 0.01 µM) was 0.446. For the same compound, the relative viability ([11]; first compound 0.03162 µM) was 0.443, the relative viability ([11]; first compound 0.1 µM) was 0.468 and the relative viability ([11]; first compound 0.3162 µM) was 0.501. For the same compound, the relative viability ([11]; first compound 1 µM) was 0.413, the relative viability ([12]; first compound 0.01 µM) was 0.498 and the relative viability ([12]; first compound 0.03162 µM) was 0.562. It also gave a relative viability ([12]; first compound 0.1 µM) of 0.597, a relative viability ([12]; first compound 0.3162 µM) of 0.538 and a relative viability ([12]; first compound 1 µM) of 0.291. For the same compound, the relative viability ([13]; first compound 0.01 µM) was 0.735, the relative viability ([13]; first compound 0.03162 µM) was 0.661 and the relative viability ([13]; first compound 0.1 µM) was 0.76. It also gave a relative viability ([13]; first compound 0.3162 µM) of 0.808, a relative viability ([13]; first compound 1 µM) of 0.779 and a relative viability ([14]; first compound 0.01 µM) of 0.429. It also gave a relative viability ([14]; first compound 0.03162 µM) of 0.398, a relative viability ([14]; first compound 0.1 µM) of 0.481 and a relative viability ([14]; first compound 0.3162 µM) of 0.408. The relative viability ([14]; first compound 1 µM) was 0.401, the relative viability ([15]; first compound 0.01 µM) was 0.662 and the relative viability ([15]; first compound 0.03162 µM) was 0.66. It also gave a relative viability ([15]; first compound 0.1 µM) of 0.689, a relative viability ([15]; first compound 0.3162 µM) of 0.582 and a relative viability ([15]; first compound 1 µM) of 0.549. It also gave a relative viability ([16]; first compound 0.01 µM) of 0.356, a relative viability ([16]; first compound 0.03162 µM) of 0.363 and a relative viability ([16]; first compound 0.1 µM) of 0.384. It also gave a relative viability ([16]; first compound 0.3162 µM) of 0.364, a relative viability ([16]; first compound 1 µM) of 0.354 and a relative viability ([17]; first compound 0.01 µM) of 0.305. For the same compound, the relative viability ([17]; first compound 0.03162 µM) was 0.383, the relative viability ([17]; first compound 0.1 µM) was 0.347 and the relative viability ([17]; first compound 0.3162 µM) was 0.316. For the same compound, the relative viability ([17]; first compound 1 µM) was 0.257, the relative viability ([18]; first compound 0.01 µM) was 0.358 and the relative viability ([18]; first compound 0.03162 µM) was 0.302. For the same compound, the relative viability ([18]; first compound 0.1 µM) was 0.358, the relative viability ([18]; first compound 0.3162 µM) was 0.472 and the relative viability ([18]; first compound 1 µM) was 0.331. The relative viability ([19]; first compound 0.01 µM) was 0.261, the relative viability ([19]; first compound 0.03162 µM) was 0.236 and the relative viability ([19]; first compound 0.1 µM) was 0.278. For the same compound, the relative viability ([19]; first compound 0.3162 µM) was 0.464, the relative viability ([19]; first compound 1 µM) was 0.244 and the relative viability ([20]; first compound 0.01 µM) was 0.627. The relative viability ([20]; first compound 0.03162 µM) was 0.666, the relative viability ([20]; first compound 0.1 µM) was 0.65 and the relative viability ([20]; first compound 0.3162 µM) was 0.622. The relative viability ([20]; first compound 1 µM) was 0.581, the relative viability ([21]; first compound 0.01 µM) was 0.572 and the relative viability ([21]; first compound 0.03162 µM) was 0.683. It also gave a relative viability ([21]; first compound 0.1 µM) of 0.795, a relative viability ([21]; first compound 0.3162 µM) of 0.797 and a relative viability ([21]; first compound 1 µM) of 0.713. The relative viability ([22]; first compound 0.01 µM) was 0.415, the relative viability ([22]; first compound 0.03162 µM) was 0.43 and the relative viability ([22]; first compound 0.1 µM) was 0.5. It also gave a relative viability ([22]; first compound 0.3162 µM) of 0.432 and a relative viability ([22]; first compound 1 µM) of 0.4.
